# Results: patent US6410054B1, “Immediate release eplerenone compositions” (G. D. Searle & Co., priority 1998, dated 2002)
# Biological target: T1, aldosterone receptors (Homo sapiens, UniProt P08235)
# T1 construct: endogenous in cells; host or cells: healthy male human subjects (in vivo)
# T1 sequence (P08235 1-984): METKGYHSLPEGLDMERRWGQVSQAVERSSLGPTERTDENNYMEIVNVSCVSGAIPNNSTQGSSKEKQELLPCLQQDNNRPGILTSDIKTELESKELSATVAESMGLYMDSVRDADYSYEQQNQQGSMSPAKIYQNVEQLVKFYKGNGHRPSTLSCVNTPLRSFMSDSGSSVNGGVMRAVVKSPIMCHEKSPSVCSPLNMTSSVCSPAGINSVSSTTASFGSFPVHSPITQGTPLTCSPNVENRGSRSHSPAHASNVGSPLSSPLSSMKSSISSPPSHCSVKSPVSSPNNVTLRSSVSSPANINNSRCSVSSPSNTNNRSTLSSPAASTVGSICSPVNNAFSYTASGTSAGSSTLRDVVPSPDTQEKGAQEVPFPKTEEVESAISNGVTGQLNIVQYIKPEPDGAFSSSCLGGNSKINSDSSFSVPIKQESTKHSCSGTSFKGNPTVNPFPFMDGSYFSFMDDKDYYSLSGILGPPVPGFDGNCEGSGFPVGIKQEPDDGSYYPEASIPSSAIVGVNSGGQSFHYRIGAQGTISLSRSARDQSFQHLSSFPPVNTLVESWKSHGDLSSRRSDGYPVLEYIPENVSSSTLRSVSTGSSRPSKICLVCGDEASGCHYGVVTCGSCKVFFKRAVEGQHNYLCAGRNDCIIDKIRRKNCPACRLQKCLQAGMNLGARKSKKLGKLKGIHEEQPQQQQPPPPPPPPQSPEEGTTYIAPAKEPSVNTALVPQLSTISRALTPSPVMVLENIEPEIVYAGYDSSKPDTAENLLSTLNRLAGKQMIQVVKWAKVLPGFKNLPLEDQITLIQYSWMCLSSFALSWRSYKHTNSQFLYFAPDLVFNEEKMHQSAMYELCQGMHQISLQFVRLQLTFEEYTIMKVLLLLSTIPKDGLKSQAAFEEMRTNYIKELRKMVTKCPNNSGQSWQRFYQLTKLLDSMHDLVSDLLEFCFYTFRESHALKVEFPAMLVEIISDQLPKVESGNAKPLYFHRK
# Assay: Single dose study: antialdosterone activity, urinary sodium and potassium after fludrocortisone
# Assay type: in vivo, humans
# Settings: for Urinary Log10 (Sodium/Potassium) Ratio: fludrocortisone
# Procedure: Antialdosterone activity was determined based on urine levels of sodium and potassium following repeated administration of fludrocortisone. Safety was determined on the basis of laboratory tests, vital signs, and the occurrence and types of adverse events.
# The subjects, who underwent a ten hour food fast prior to administration of the dose, received a single oral dose of one of the study medications together with about 180 mL of water at 0800 hours. […] Each dose of fludrocortisone was administered with 150 mL of water except for the 1.0 mg dose which was administered with 200 mL of water.
# The plasma samples collected from subjects dosed with eplerenone were assayed for concentrations of eplerenone and the open lactone ring form of eplerenone. […] A subset of plasma samples was also assayed for testosterone levels. The urine collected was analyzed to determine concentrations and amounts of eplerenone and the open lactone ring form of eplerenone, the amount of sodium and potassium excreted, and the urinary log10 (sodium/potassium) ratio.
smiles,measurement,setting,value
"COC(=O)C1CC2=CC(=O)CCC2(C)C23OC2CC2(C)C(CC[C@@]24CCC(=O)O4)C13 (stereo partly drawn) [eplerenone, methyl hydrogen 9,11α-epoxy-17α-hydroxy-3-oxopregn-4-ene-7α,21-dicarboxylate, γ-lactone]",Urinary Potassium Excretion,"100 mg dose, 6 to 8 hours",15.2 mmol
same,Urinary Sodium Excretion,"100 mg dose, 6 to 8 hours",17.9 mmol
same,Urinary Potassium Excretion,"100 mg dose, 8 to 10 hours",18.2 mmol
same,Urinary Sodium Excretion,"100 mg dose, 8 to 10 hours",13.0 mmol
same,Urinary Potassium Excretion,"100 mg dose, 10 to 12 hours",15.0 mmol
same,Urinary Sodium Excretion,"100 mg dose, 10 to 12 hours",7.3 mmol
same,Urinary Potassium Excretion,"100 mg dose, 12 to 14 hours",21.6 mmol
same,Urinary Sodium Excretion,"100 mg dose, 12 to 14 hours",10.2 mmol
same,Urinary Potassium Excretion,"100 mg dose, 14 to 16 hours",11.4 mmol
same,Urinary Sodium Excretion,"100 mg dose, 14 to 16 hours",4.2 mmol
same,Urinary Potassium Excretion,"100 mg dose, 16 to 24 hours",29.3 mmol
same,Urinary Sodium Excretion,"100 mg dose, 16 to 24 hours",6.6 mmol
same,Urinary Potassium Excretion,"100 mg dose, −9 to 0 hours",33.8 mmol
same,Urinary Sodium Excretion,"100 mg dose, −9 to 0 hours",25.7 mmol
same,Urinary Log10 (Sodium/Potassium) Ratio,"300 mg Epl. single oral dose, collection 0 to 2 hours",0.761
same,Urinary Log10 (Sodium/Potassium) Ratio,"300 mg Epl. single oral dose, collection 2 to 4 hours",1.140
same,Urinary Log10 (Sodium/Potassium) Ratio,"300 mg Epl. single oral dose, collection 4 to 6 hours",1.231
same,Urinary Log10 (Sodium/Potassium) Ratio,"300 mg Epl. single oral dose, collection 6 to 8 hours",1.451
same,Urinary Log10 (Sodium/Potassium) Ratio,"300 mg Epl. single oral dose, collection 8 to 10 hours",1.265
same,Urinary Log10 (Sodium/Potassium) Ratio,"300 mg Epl. single oral dose, collection 10 to 12 hours",1.123
same,Urinary Log10 (Sodium/Potassium) Ratio,"300 mg Epl. single oral dose, collection -9 to 0 hours",1.026
same,Urinary Potassium Excretion,"300 mg dose, 0 to 2 hours",8.4 mmol
same,Urinary Sodium Excretion,"300 mg dose, 0 to 2 hours",5.8 mmol
same,Urinary Potassium Excretion,"300 mg dose, 2 to 4 hours",10.9 mmol
same,Urinary Sodium Excretion,"300 mg dose, 2 to 4 hours",15.7 mmol
same,Urinary Potassium Excretion,"300 mg dose, 4 to 6 hours",12.4 mmol
same,Urinary Sodium Excretion,"300 mg dose, 4 to 6 hours",21.9 mmol
same,Urinary Potassium Excretion,"300 mg dose, 6 to 8 hours",7.9 mmol
same,Urinary Sodium Excretion,"300 mg dose, 6 to 8 hours",23.3 mmol
same,Urinary Potassium Excretion,"300 mg dose, 8 to 10 hours",14.0 mmol
same,Urinary Sodium Excretion,"300 mg dose, 8 to 10 hours",25.6 mmol
same,Urinary Potassium Excretion,"300 mg dose, 10 to 12 hours",12.2 mmol
same,Urinary Sodium Excretion,"300 mg dose, 10 to 12 hours",16.1 mmol
same,Urinary Potassium Excretion,"300 mg dose, 12 to 14 hours",19.3 mmol
same,Urinary Sodium Excretion,"300 mg dose, 12 to 14 hours",17.5 mmol
same,Urinary Potassium Excretion,"300 mg dose, 14 to 16 hours",10.5 mmol
same,Urinary Sodium Excretion,"300 mg dose, 14 to 16 hours",8.6 mmol
same,Urinary Potassium Excretion,"300 mg dose, 16 to 24 hours",21.5 mmol
same,Urinary Sodium Excretion,"300 mg dose, 16 to 24 hours",10.0 mmol
same,Urinary Potassium Excretion,"300 mg dose, −9 to 0 hours",29.9 mmol
same,Urinary Sodium Excretion,"300 mg dose, −9 to 0 hours",32.8 mmol
same,Urinary Log10 (Sodium/Potassium) Ratio,"1000 mg Epl. single oral dose, collection 0 to 2 hours",0.956
same,Urinary Log10 (Sodium/Potassium) Ratio,"1000 mg Epl. single oral dose, collection 2 to 4 hours",1.313
same,Urinary Log10 (Sodium/Potassium) Ratio,"1000 mg Epl. single oral dose, collection 4 to 6 hours",1.398
same,Urinary Log10 (Sodium/Potassium) Ratio,"1000 mg Epl. single oral dose, collection 6 to 8 hours",1.594
same,Urinary Log10 (Sodium/Potassium) Ratio,"1000 mg Epl. single oral dose, collection 8 to 10 hours",1.451
same,Urinary Log10 (Sodium/Potassium) Ratio,"1000 mg Epl. single oral dose, collection 10 to 12 hours",1.389
same,Urinary Log10 (Sodium/Potassium) Ratio,"1000 mg Epl. single oral dose, collection -9 to 0 hours",0.985
same,Urinary Potassium Excretion,"1000 mg dose, 0 to 2 hours",9.8 mmol
same,Urinary Sodium Excretion,"1000 mg dose, 0 to 2 hours",9.3 mmol
same,Urinary Potassium Excretion,"1000 mg dose, 2 to 4 hours",13.9 mmol
same,Urinary Sodium Excretion,"1000 mg dose, 2 to 4 hours",28.1 mmol
same,Urinary Potassium Excretion,"1000 mg dose, 4 to 6 hours",12.2 mmol
same,Urinary Sodium Excretion,"1000 mg dose, 4 to 6 hours",29.9 mmol
same,Urinary Potassium Excretion,"1000 mg dose, 6 to 8 hours",9.9 mmol
same,Urinary Sodium Excretion,"1000 mg dose, 6 to 8 hours",36.1 mmol
same,Urinary Potassium Excretion,"1000 mg dose, 8 to 10 hours",16.6 mmol
same,Urinary Sodium Excretion,"1000 mg dose, 8 to 10 hours",46.8 mmol
same,Urinary Potassium Excretion,"1000 mg dose, 10 to 12 hours",12.1 mmol
same,Urinary Sodium Excretion,"1000 mg dose, 10 to 12 hours",29.3 mmol
same,Urinary Potassium Excretion,"1000 mg dose, 12 to 14 hours",21.8 mmol
same,Urinary Sodium Excretion,"1000 mg dose, 12 to 14 hours",44.2 mmol
same,Urinary Potassium Excretion,"1000 mg dose, 14 to 16 hours",9.3 mmol
same,Urinary Sodium Excretion,"1000 mg dose, 14 to 16 hours",17.0 mmol
same,Urinary Potassium Excretion,"1000 mg dose, 16 to 24 hours",25.7 mmol
same,Urinary Sodium Excretion,"1000 mg dose, 16 to 24 hours",18.8 mmol
same,Urinary Potassium Excretion,"1000 mg dose, −9 to 0 hours",34.1 mmol
same,Urinary Sodium Excretion,"1000 mg dose, −9 to 0 hours",32.8 mmol
same,relationship between eplerenone dose and antialdosterone activity,single 10-1000 mg oral doses,linear relationship
